From the kinase profiling compilation of Christmann-Franck et al. (2016)

Experiments:
Test in all cases: KINOMEscan competition binding
Conditions in all cases: compound 10.0 µM
DCLK1 (human) = DCLK1 (human) (UniProt O15075)
PIM1 (human) = PIM1 (human) (UniProt P11309)
MAP4K5 (human) = MAP4K5 (human) (UniProt Q9Y4K4)
CDC42BPG (human) = CDC42BPG (human) (UniProt Q6DT37)
AXL (human) = AXL (human) (UniProt P30530)
CAMK2A (human) = CAMK2A (human) (UniProt Q9UQM7)
CAMK2B (human) = CAMK2B (human) (UniProt Q13554)
Sequence of CAMK2B (human) (Q13554 whole entry, looked up): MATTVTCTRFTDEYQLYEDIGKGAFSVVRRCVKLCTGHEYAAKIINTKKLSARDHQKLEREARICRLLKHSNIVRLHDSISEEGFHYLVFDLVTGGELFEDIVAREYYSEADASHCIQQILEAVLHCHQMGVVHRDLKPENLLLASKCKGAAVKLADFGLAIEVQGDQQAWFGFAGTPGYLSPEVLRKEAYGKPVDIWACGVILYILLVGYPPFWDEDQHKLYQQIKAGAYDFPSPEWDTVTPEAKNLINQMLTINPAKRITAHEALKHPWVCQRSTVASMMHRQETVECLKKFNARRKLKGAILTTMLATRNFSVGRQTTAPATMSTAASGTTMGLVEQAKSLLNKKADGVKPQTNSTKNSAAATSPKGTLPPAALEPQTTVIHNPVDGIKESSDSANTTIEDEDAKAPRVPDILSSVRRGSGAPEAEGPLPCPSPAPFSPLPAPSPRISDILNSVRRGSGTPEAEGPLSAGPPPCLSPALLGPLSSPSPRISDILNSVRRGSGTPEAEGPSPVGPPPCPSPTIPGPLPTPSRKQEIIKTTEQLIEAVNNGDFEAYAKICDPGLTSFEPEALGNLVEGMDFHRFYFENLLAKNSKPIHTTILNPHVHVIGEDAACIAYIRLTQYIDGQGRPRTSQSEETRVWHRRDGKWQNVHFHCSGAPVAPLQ

ALK (human) = ALK (human) (UniProt Q9UM73)
Sequence of ALK (human) (Q9UM73 whole entry, looked up): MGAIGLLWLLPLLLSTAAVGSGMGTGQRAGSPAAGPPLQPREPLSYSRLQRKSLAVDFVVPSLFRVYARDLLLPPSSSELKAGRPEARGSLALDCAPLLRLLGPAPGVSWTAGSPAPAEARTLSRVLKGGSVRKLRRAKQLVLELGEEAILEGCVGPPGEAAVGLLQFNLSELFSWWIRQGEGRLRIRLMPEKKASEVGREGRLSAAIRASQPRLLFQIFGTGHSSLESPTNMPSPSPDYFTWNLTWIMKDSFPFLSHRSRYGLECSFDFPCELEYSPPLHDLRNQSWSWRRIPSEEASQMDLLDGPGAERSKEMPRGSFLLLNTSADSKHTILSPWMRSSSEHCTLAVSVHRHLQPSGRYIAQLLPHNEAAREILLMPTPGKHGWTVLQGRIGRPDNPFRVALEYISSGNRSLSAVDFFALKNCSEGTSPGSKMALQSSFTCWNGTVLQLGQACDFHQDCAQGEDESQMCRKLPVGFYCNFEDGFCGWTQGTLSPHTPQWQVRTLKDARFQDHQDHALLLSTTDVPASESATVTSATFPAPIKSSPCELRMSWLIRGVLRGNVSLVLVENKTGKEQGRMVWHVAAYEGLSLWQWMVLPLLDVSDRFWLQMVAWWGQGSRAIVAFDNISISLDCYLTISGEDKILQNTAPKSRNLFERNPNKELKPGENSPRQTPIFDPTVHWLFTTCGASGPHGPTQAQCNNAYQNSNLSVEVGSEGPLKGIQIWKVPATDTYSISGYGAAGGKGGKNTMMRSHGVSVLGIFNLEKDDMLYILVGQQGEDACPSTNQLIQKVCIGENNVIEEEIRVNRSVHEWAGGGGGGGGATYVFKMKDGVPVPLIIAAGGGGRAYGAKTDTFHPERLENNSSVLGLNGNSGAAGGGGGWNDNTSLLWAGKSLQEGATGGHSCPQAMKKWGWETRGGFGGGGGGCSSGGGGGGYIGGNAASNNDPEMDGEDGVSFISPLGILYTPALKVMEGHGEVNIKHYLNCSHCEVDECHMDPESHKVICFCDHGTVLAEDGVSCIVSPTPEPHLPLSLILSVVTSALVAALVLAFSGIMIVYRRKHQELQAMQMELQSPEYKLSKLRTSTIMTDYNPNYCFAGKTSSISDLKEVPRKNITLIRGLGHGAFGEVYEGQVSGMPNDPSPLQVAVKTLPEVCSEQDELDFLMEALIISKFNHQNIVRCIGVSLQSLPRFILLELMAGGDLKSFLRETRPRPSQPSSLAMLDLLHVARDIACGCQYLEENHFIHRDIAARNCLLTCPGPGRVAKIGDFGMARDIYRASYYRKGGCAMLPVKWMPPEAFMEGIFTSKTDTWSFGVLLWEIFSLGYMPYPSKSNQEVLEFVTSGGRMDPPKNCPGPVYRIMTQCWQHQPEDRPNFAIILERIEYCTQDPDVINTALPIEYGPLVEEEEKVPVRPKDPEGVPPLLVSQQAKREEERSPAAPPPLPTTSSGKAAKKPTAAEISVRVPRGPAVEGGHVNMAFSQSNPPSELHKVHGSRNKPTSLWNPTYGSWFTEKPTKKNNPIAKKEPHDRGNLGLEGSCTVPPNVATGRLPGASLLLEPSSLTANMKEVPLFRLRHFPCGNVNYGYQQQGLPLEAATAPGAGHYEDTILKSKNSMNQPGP

BMPR1B (human) = BMPR1B (human) (UniProt O00238)
TLK1 (human) = TLK1 (human) (UniProt Q9UKI8)
CDK7 (human) = CDK7 (human) (UniProt P50613)
SRMS (human) = SRMS (human) (UniProt Q9H3Y6)
Sequence of SRMS (human) (Q9H3Y6 whole entry, looked up): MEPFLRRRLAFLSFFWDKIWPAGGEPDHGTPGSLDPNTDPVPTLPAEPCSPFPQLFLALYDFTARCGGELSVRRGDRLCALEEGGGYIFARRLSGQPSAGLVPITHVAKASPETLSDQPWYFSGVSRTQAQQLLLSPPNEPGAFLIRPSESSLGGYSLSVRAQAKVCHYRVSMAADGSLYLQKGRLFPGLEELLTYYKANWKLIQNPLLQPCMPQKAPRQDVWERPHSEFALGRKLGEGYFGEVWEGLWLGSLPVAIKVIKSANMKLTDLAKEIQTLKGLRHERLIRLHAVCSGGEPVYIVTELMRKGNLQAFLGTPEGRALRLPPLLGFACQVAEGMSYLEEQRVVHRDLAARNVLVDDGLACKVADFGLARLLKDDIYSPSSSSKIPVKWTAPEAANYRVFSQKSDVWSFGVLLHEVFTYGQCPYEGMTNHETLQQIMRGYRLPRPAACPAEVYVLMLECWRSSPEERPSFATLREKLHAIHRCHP

CSNK2A2 (human) = CSNK2A2 (human) (UniProt P19784)
CHEK2 (human) = CHEK2 (human) (UniProt O96017)
Sequence of CHEK2 (human) (O96017 whole entry, looked up): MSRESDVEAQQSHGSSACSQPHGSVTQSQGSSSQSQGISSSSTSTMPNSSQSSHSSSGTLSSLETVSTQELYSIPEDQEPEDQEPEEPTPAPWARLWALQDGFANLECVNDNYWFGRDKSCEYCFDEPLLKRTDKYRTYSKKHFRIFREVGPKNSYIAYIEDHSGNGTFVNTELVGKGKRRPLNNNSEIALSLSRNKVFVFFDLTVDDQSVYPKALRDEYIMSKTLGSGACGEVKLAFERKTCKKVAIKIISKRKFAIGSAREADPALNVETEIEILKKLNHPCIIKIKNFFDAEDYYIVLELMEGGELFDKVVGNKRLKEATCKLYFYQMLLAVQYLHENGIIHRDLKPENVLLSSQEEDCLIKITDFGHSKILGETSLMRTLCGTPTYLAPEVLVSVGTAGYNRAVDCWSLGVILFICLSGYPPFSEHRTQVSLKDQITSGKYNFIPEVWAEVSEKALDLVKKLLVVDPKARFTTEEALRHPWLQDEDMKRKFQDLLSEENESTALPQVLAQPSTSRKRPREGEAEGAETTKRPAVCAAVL

CDK19 (human) = CDK19 (human) (UniProt Q9BWU1)
ADCK4 (human) = ADCK4 (human) (UniProt Q96D53)
ACVR2A (human) = ACVR2A (human) (UniProt P27037)
KDR (human) = KDR (human) (UniProt P35968)
Sequence of KDR (human) (P35968 whole entry, looked up): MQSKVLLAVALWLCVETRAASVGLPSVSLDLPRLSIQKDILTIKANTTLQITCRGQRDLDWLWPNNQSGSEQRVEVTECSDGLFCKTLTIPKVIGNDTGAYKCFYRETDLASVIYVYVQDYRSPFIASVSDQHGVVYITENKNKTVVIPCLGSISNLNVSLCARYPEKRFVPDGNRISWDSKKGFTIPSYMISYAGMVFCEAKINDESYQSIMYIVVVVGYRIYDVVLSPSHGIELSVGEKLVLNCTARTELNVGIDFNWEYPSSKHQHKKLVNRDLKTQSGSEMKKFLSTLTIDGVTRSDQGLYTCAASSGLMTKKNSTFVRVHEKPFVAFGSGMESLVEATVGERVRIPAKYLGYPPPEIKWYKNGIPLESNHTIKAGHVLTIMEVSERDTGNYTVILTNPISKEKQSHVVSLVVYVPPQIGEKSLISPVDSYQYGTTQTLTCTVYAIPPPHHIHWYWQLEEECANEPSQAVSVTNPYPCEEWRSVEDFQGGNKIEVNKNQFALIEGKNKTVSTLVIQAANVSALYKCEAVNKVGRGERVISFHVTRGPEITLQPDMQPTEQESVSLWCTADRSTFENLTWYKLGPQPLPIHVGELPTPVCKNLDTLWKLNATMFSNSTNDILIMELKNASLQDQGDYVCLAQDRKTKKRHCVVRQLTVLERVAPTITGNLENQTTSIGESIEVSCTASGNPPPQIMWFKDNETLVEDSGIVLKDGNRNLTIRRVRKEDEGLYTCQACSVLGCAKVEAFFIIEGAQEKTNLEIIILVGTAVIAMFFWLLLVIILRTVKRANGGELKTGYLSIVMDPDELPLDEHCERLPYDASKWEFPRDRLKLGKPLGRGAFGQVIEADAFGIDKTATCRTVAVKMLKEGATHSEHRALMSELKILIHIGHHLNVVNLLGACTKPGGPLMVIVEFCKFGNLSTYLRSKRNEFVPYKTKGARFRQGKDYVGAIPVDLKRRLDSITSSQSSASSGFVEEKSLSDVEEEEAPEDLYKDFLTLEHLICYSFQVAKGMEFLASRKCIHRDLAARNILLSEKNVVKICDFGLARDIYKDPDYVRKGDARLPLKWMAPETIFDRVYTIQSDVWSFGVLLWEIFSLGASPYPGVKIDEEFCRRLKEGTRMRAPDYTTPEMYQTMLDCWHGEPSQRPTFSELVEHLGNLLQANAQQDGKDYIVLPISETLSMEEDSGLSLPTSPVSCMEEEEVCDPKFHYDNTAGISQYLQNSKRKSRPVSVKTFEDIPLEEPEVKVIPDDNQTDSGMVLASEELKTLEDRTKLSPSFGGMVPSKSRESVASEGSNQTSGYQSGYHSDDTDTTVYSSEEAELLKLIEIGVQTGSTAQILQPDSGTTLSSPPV

ULK1 (human) = ULK1 (human) (UniProt O75385)
YES1 (human) = YES1 (human) (UniProt P07947)
MAPK11 (human) = MAPK11 (human) (UniProt Q15759)
SYK (human) = SYK (human) (UniProt P43405)
EPHA5 (human) = EPHA5 (human) (UniProt P54756)
HIPK3 (human) = HIPK3 (human) (UniProt Q9H422)
ROCK1 (human) = ROCK1 (human) (UniProt Q13464)
EPHA2 (human) = EPHA2 (human) (UniProt P29317)
MAP2K6 (human) = MAP2K6 (human) (UniProt P52564)
PTK2B (human) = PTK2B (human) (UniProt Q14289)
EPHA1 (human) = EPHA1 (human) (UniProt P21709)
EIF2AK1 (human) = EIF2AK1 (human) (UniProt Q9BQI3)
MAPK4 (human) = MAPK4 (human) (UniProt P31152)
VRK2 (human) = VRK2 (human) (UniProt Q86Y07)
RAF1 (human) = RAF1 (human) (UniProt P04049)
WEE1 (human) = WEE1 (human) (UniProt P30291)
PRKACA (human) = PRKACA (human) (UniProt P17612)
SRPK2 (human) = SRPK2 (human) (UniProt P78362)
[1] = tested on: KIT (human), P10721 [A829P]
STK3 (human) = STK3 (human) (UniProt Q13188)
RPS6KA2 KD1 (human) = RPS6KA2 KD1 (human) (UniProt Q15349)
MAPK8 (human) = MAPK8 (human) (UniProt P45983)
Sequence of MAPK8 (human) (P45983 whole entry, looked up): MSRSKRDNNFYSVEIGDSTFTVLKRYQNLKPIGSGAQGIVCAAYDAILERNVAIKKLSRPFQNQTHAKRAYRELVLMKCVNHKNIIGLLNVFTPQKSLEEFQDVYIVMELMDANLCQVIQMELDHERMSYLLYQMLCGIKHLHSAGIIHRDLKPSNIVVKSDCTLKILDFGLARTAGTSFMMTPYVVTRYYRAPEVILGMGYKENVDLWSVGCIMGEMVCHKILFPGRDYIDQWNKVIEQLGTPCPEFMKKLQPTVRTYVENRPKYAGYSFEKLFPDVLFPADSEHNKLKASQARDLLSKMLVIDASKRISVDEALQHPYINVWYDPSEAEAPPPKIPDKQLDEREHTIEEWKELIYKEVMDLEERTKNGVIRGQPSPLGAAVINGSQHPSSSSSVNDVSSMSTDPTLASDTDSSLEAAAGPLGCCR

C=CC(=O)Nc1ccc(C(=O)c2sc(Nc3ccc(N4CCN(C)CC4)cc3OC)nc2N)cc1
kinase still bound, per cent of control (DCLK1 (human)): 5.6% | kinase still bound, per cent of control (PIM1 (human)): 90% | kinase still bound, per cent of control (MAP4K5 (human)): 87% | kinase still bound, per cent of control (CDC42BPG (human)): 93% | kinase still bound, per cent of control (AXL (human)): 100% | kinase still bound, per cent of control (CAMK2A (human)): 1.2% | kinase still bound, per cent of control (CAMK2B (human)): 0% | kinase still bound, per cent of control (ALK (human)): 8.4% | kinase still bound, per cent of control (BMPR1B (human)): 86% | kinase still bound, per cent of control (TLK1 (human)): 69% | kinase still bound, per cent of control (CDK7 (human)): 5.8% | kinase still bound, per cent of control (SRMS (human)): 66% | kinase still bound, per cent of control (CSNK2A2 (human)): 37% | kinase still bound, per cent of control (CHEK2 (human)): 26% | kinase still bound, per cent of control (CDK19 (human)): 100% | kinase still bound, per cent of control (ADCK4 (human)): 45% | kinase still bound, per cent of control (ACVR2A (human)): 100% | kinase still bound, per cent of control (KDR (human)): 100% | kinase still bound, per cent of control (ULK1 (human)): 5.1% | kinase still bound, per cent of control (YES1 (human)): 86% | kinase still bound, per cent of control (MAPK11 (human)): 4.1% | kinase still bound, per cent of control (SYK (human)): 100% | kinase still bound, per cent of control (EPHA5 (human)): 89% | kinase still bound, per cent of control (HIPK3 (human)): 42% | kinase still bound, per cent of control (ROCK1 (human)): 42% | kinase still bound, per cent of control (EPHA2 (human)): 96% | kinase still bound, per cent of control (MAP2K6 (human)): 96% | kinase still bound, per cent of control (PTK2B (human)): 42% | kinase still bound, per cent of control (EPHA1 (human)): 100% | kinase still bound, per cent of control (EIF2AK1 (human)): 100% | kinase still bound, per cent of control (MAPK4 (human)): 100% | kinase still bound, per cent of control (VRK2 (human)): 96% | kinase still bound, per cent of control (RAF1 (human)): 97% | kinase still bound, per cent of control (WEE1 (human)): 100% | kinase still bound, per cent of control (PRKACA (human)): 100% | kinase still bound, per cent of control (SRPK2 (human)): 95% | kinase still bound, per cent of control [1]: 63% | kinase still bound, per cent of control (STK3 (human)): 98% | kinase still bound, per cent of control (RPS6KA2 KD1 (human)): 97% | kinase still bound, per cent of control (MAPK8 (human)): 4.2%

CNC(=O)Nc1ccc(-c2nc(N3CC4CCC(C3)O4)c3cnn(C4CCC5(CC4)OCCO5)c3n2)cc1
kinase still bound, per cent of control (DCLK1 (human)): 100% | kinase still bound, per cent of control (PIM1 (human)): 100% | kinase still bound, per cent of control (MAP4K5 (human)): 83% | kinase still bound, per cent of control (CDC42BPG (human)): 84% | kinase still bound, per cent of control (AXL (human)): 88% | kinase still bound, per cent of control (CAMK2A (human)): 100% | kinase still bound, per cent of control (CAMK2B (human)): 100% | kinase still bound, per cent of control (ALK (human)): 42% | kinase still bound, per cent of control (BMPR1B (human)): 83% | kinase still bound, per cent of control (TLK1 (human)): 86% | kinase still bound, per cent of control (CDK7 (human)): 88% | kinase still bound, per cent of control (SRMS (human)): 97% | kinase still bound, per cent of control (CSNK2A2 (human)): 100% | kinase still bound, per cent of control (CHEK2 (human)): 84% | kinase still bound, per cent of control (CDK19 (human)): 100% | kinase still bound, per cent of control (ADCK4 (human)): 100% | kinase still bound, per cent of control (ACVR2A (human)): 78% | kinase still bound, per cent of control (KDR (human)): 76% | kinase still bound, per cent of control (ULK1 (human)): 100% | kinase still bound, per cent of control (YES1 (human)): 97% | kinase still bound, per cent of control (MAPK11 (human)): 100% | kinase still bound, per cent of control (SYK (human)): 100% | kinase still bound, per cent of control (EPHA5 (human)): 92% | kinase still bound, per cent of control (HIPK3 (human)): 42% | kinase still bound, per cent of control (ROCK1 (human)): 100% | kinase still bound, per cent of control (EPHA2 (human)): 81% | kinase still bound, per cent of control (MAP2K6 (human)): 95% | kinase still bound, per cent of control (PTK2B (human)): 100% | kinase still bound, per cent of control (EPHA1 (human)): 81% | kinase still bound, per cent of control (EIF2AK1 (human)): 100% | kinase still bound, per cent of control (MAPK4 (human)): 100% | kinase still bound, per cent of control (VRK2 (human)): 100% | kinase still bound, per cent of control (RAF1 (human)): 100% | kinase still bound, per cent of control (WEE1 (human)): 79% | kinase still bound, per cent of control (PRKACA (human)): 75% | kinase still bound, per cent of control (SRPK2 (human)): 90% | kinase still bound, per cent of control [1]: 89% | kinase still bound, per cent of control (STK3 (human)): 97% | kinase still bound, per cent of control (RPS6KA2 KD1 (human)): 100% | kinase still bound, per cent of control (MAPK8 (human)): 91%
